This is an account of results in patent US20120035320A1, “POLYACRIDINE NUCLEIC ACID DELIVERY PEPTIDE COMPLEXES” (University of Iowa Research Foundation, priority 2010, published 2012).

Values joined by “and” are separate entries in the source; they are usually repeats but may differ in a detail not shown here. Equal entries are not always repeated. No end group written: not given here. Acr = acridine on the lysine ε-amine; PEG = not defined here

One series deals with Mice. Briefly: IM-EP of Man9-(Acr-Lys)6 DNA in mice. The series is classed as in vivo. The conditions noted are these: intramuscular electroporation, 1 μg DNA. The protocol: (§1) We tested Man9-N-glycan polyacridine peptides as a DNA vaccine adjuvant for use in combination with an intramuscular electroporation apparatus. […] The Man9-(Acr-Lys)6 (SEQ ID NO: 42) that we used for this study has the following structure of In certain embodiments the compound is Formula IVb: […]
The inventors obtained mouse data illustrating the electroporation apparatus expression of Man9-(Acr-Lys)6 (SEQ ID NO: 42) DNA (1 μg) at 0 and 0.012 nmoles of Man9-(Acr-Lys)6 (SEQ ID NO: 42) per μg of DNA (FIG. 32). The luciferase gene expression was equivalent at 0, 0.003 and 0.006 nmols of Man9 per μg of DNA, and then decreased at 0.0125 nmols of Man9 and higher. 0.0125 nmols of Man9-(Acr-Lys)6 (SEQ ID NO: 42) per μg of DNA corresponds 40 copies of Man9 per plasmid.

A further series deals with plasmid. Nature of the series: DNA band shift assay of Man9-(Acr-Lys)6. The format is binding.
Source text: as §1

For series [1], the system named is pGL3. Nature of the series: Man 9 glycopeptide DNA band shift assay. The format is binding. The following applies: agarose gel. The method, then:
pGL3 (1 μg) was combined with 0.05, 0.2, 0.5, and 1 nmol of Man 9 glycopeptide. Each sample was incubated for 30 min before loading onto an agarose gel, that was electrophoresed at 80 V for 60 min (Adami, R. C., Collard, W. T., Gupta, S. A., Kwok, K. Y., Bonadio, J., and Rice, K. G. (1998) Stability of Peptide-Condensed Plasmid DNA Formulations. Journal of Pharmaceutical Sciences 87, 678-683). The gel was stained with 0.1 mg per ml of ethidium bromide at 4° C. for 24 hrs, then photographed while illuminating on a transilluminator.

Series [2] deals with DC-SIGN (+) and (−) CHO cells. Briefly: Cy5-DNA glycopeptide polyplex uptake by FACS. The series is classed as cell-based, human. The following applies: 24 hr 37° C. The protocol: pGL3 plasmid (5 μg) was labeled with Label IT according to the manufacturer's instructions to prepare Cy5-DNA. The Man 9 glycopeptide (0.5 nmol) was combined with 1 μg Cy5-DNA in 60 μl of water and incubated for 30 min to form a polyplex. DC-SIGN (+) and (−) CHO cells (1×10^6) (Granelli-Pipemo, A., Pritsker, A., Pack, M., Shimeliovich, I., Arrighi, J. F., Park, C. G., Trumpfheller, C., Piguet, V., Moran, T. M., and Steinman, R. M. (2005) Dendritic Cell Specific Intercellular Adhesion Molecule 3-Grabbing Nonintegrin/CD209 Is Abundant on Macrophages in the Normal Human Lymph Node and Is Not Required for Dendritic Cell Stimulation of the Mixed Leukocyte Reaction. J Immunology 7, 4260-4273) were each plated in triplicate in 35 mm wells and grown in DMEM supplemented with 7% FBS and 1% nonessential amino acids for 24 hrs. CHO (+) and (−) cells were transfected for 24 hrs with 1 μg of Cy5-DNA polyplex. The CHO cells were lifted by treatment with 5 ml of 1 mM EDTA in PBS and concentrated by centrifugation by 2,000×g, before diluting to a final volume of 1 ml in PBS. The transfected CHO (+) and (−) cells were analyzed by FACS on a Becton Dickson LSRII with excitation 488 nm and emission 575 nm, and compared to untransfected CHO cells.
(In flow cytometry, cells or beads pass a laser one at a time.)

In series [3] the test system is pGL3. Nature of the series: thiazole orange displacement assay of Man 9 glycopeptide. The series is classed as binding. The conditions noted are these: pGL3 1 μg, 40 nM thiazole orange. The protocol: A control sample of pGL3 (1 μg) was combined with 40 nM thiazole orange in a total volume of 500 μl of 5 mM Hepes buffer pH 7.4. The Man 9 glycopeptide (0.2, 0.3, 0.4, 1 and 2 nmol) or Cys-(Acr-Lys)4 peptide (SEQ ID NO: 23) was added to pGL3 (1 μg) samples containing thiazole orange, and incubated for 30 min, followed by measuring the fluorescence intensity at excitation 500 nm and emission 530 nm (Wadhwa, M. S., Collard, W. T., Adami, R. C., McKenzie, D. L., and Rice, K. G. (1997) Peptide-mediated gene delivery: influence of peptide structure on gene expression. Bioconjugate Chemistry 8, 81-8). The percent fluorescence intensity relative to control was plotted versus the stoichiometry of glycopeptide or peptide added to DNA to determine the equivalence point.

The subject of series [4] is DC-SIGN (+) and (−) CHO cells. Briefly: in vitro transfection with glycopeptide DNA polyplexes. The conditions noted are these: luciferase, 24 hrs. The series is classed as cell-based, human. The protocol: DC-SIGN (+) CHO cells (1×10^5) were plated in 6-well plates in triplicate in 1 ml DMEM high glucose supplemented with 7% FBS and 1% MEM non-essential amino acids. After incubation for 24 hrs at 37° C. in 5% CO2, the media was removed, the cells were washed with 1 ml DPBS, replaced with 1 ml DMEM high glucose media supplemented with 2% FBS and 0.3% MEM non-essential amino acids.
Cells were transfected in triplicate for 24 hrs with pGL3 polyplexes (1 μg DNA and 0.6 nmol of glycopeptide in a total volume of 30 μl). The efficiency of glycopeptide DNA polyplex transfection was compared with PEI-DNA transfection performed by combining 1 μg DNA with 1.2 μg of PEI (N:P of 9) in 100 μl of 5 mM Hepes, 270 mM mannitol, pH 7.4. After 24 hrs, cells were washed with 2 ml of DPBS and lysed with 0.5 ml of lysis buffer (25 mM tris chloride, 1 mM EDTA, 8 mM magnesium chloride, 1% Triton X-100, pH 7.8) for 10 min at 4° C. […] The relative light units were determined with 10 sec integration after automatic injection of 100 μl of 0.43 mM D-luciferin. Protein concentrations were measured by a BCA assay with bovine serum albumin as a standard (Smith, P. K., Krohn, R. I., Hermanson, G. T., Mallia, A. K., Gartner, F. H., Provenzano, M. D., Fujimoto, E. K., Goeke, N. M., Olson, B. J., and Klenk, D. C. (1985) Measurement of protein using bicinchoninic acid. Anal Biochem 150, 76-85). […]

For series [5] the following is noted: following i.v. dosing; Collard et al. 2000; cited from earlier work.
The test system of the next series is liver. Nature of the series: hydrodynamic stimulation and bioluminescence imaging of luciferase expression. The format is in vivo, mice. The conditions noted are these: 1 μg pGL3 dose, HD stimulation after 30 min, 24 hrs. The method, then:
pGL3 (1 μg) was prepared in a volume of normal saline corresponding to 9 wt/vol % of the mouse's body weight (1.8-2.25 ml based on 20-25 g mice). The DNA dose was administered by tail vein to 4-5 mice in 5 sec according to a published procedure (Liu F, Song Y, Liu D. Hydrodynamics-based transfection in animals by systemic administration of plasmid DNA. Gene Ther 1999; 6: 1258-1266; Zhang G, Budker V, Wolff J A. High levels of foreign gene expression in hepatocytes after tail vein injections of naked plasmid DNA. Human Gene Therapy 1999; 10: 1735-1737). Mice (4-5) were also dosed tail vein with 1 μg of PEGylated polyacridine polyplex in 50 μl of HBM (5 mM Hepes, 0.27 M mannitol, pH 7.4). At times ranging from 5-120 min, a stimulatory hydrodynamic dose of normal saline (9 wt/vol % of the body weight) was administered over 5 sec. At 24 hrs post-DNA dose, mice were anesthetized by 3% isofluorane, then administered an i.p. dose of 80 μl (2.4 mg) of D-luciferin (30 μg/μl in phosphate-buffered saline). At 5 min following the D-luciferin dose, mice were imaged for bioluminescence (BLI) on an IVIS Imaging 200 Series (Xenogen). BLI was performed in a light-tight chamber on a temperature-controlled, adjustable stage while isofluorane was administered by a gas manifold at a flow rate of 3%. Images were acquired at a ‘medium’ binning level and a 20 cm field of view. Acquisition times were varied (1 sec^−1 min) depending on the intensity of the luminescence. The Xenogen system reported bioluminescence as photons/sec/cm^2/seradian in a 2.86 cm diameter region of interest covering the liver. The integration area was transformed to pmols of luciferase in the liver using a previously reported standard curve (Rettig G et al. Quantitative Bioluminscence Imaging of Transgene Expression In Vivo. Analytical Biochemistry 2006; 335: 90-94). The results were determined to be statistically significant (p≦0.05) based on a two-tailed unpaired t-test.

“Man9-(Acr-Lys)6: Iodoacetamide Man9 N-glycan reacted with Cys(Acr-Lys)6; Formula IVb (K(Acr)KK(Acr)KK(Acr)KK(Acr)KK(Acr)KK(Acr)K; not fully specified (N-terminus); also: Man9 N-glycan attached via iodoacetamide to a Cys not shown in chain)”: in the series on Mice, the “luciferase gene expression at 0, 0.003 and 0.006 nmols of Man9 per μg of DNA” value is given as “equivalent”; the “luciferase gene expression at 0.0125 nmols of Man9 and higher” value is given as “decreased”. For the same substance, the “copies bound to plasmid” value in the series with plasmid is “up to 40 copies”.

As for “Man 9 glycopeptide: high mannose N-glycan Man 9 Mal (Tyr, propionate maleimide) conjugated to Cys-(Acr-Lys)4”, the “stoichiometry at which the band shift was complete” value in the series with pGL3 [1] is recorded as ≥ 0.4 nmol of glycopeptide per μg of DNA. The “cell uptake (fluorescence intensity), CHO (+) over CHO (−) cells” value in series [2] was 10-50 fold and ~10 fold. In the series on pGL3 [3], the “thiazole orange displacement, asymptote / equivalence point for polyplex formation” value is 0.4 nmol per μg of DNA.

As for “Cys-(Acr-Lys)4: DNA binding polyacridine peptide with N-terminal Cys, prepared with Fmoc-Lys(Acr); SEQ ID NO: 23”, the “selectivity of gene transfer for CHO (+) or (−) cells” value in series [4] was “did not demonstrate selectivity”.

As for “PEG-Cys-Trp-Lys18: PEGylated polylysine peptide control, SEQ ID NO: 34 (C(PEG)WKKKKKKKKKKKKKKKKKK; reading uncertain)”, the “complete metabolism of plasmid DNA in the circulation” value in series [5] is at most 3 min. In addition, the “stimulated luciferase expression of controls” value with liver is recorded as “failed to produce measurable expression”; in the series with liver (listed as PEGylated-Cys-Trp-Lys18), “no detectable luciferase expression”.
